target: T1, recombinant JAK1 enzyme (Homo sapiens, UniProt P23458); test: JAK1 Kinase Assay (luciferase-luciferin-coupled chemiluminescence, ATP consumption); type: biochemical; settings: 8 nM JAK1 (V866-K1155), 30 μM IRS-1 peptide (Y608), 2 μM ATP, 2 hours ambient temperature, KinaseGlo; read-out: JAK1 IRS-1tide Chemilum (IC50)
T1 construct: 8 nM of recombinant JAK1 enzyme (Insect expressed: V866-K1155); host or cells: insect cells
Procedure: JAK1 Kinase Assay Used to Test Compounds
JAK1 Kinase activity was measured as the percent of ATP consumed following the kinase reaction using luciferase-luciferin-coupled chemiluminescence. The reaction was conducted in white medium binding 384-well microtiter plates. The kinase reaction were initiated by combining test compounds, 8 nM of recombinant JAK1 enzyme (Insect expressed: V866-K1155), 30 μM of IRS-1 peptide (Y608) and 2 μM ATP in buffer containing 20 mM Hepes (pH 7.5), 10 mM MgCl2, 0.01% Brij, 5% glycerol and 1 mM DTT in a 20 μL volume. The reaction mixture was incubated at ambient temperature for 2 hours. Following the kinase reaction, a 20 μL aliquot of KinaseGlo was added to stop the reaction and measure remaining ATP via detection of chemiluminescence using the Envison reader. Total ATP consumption was limited to 25-60%.

T1 sequence (P23458 865-1154 limits assumed): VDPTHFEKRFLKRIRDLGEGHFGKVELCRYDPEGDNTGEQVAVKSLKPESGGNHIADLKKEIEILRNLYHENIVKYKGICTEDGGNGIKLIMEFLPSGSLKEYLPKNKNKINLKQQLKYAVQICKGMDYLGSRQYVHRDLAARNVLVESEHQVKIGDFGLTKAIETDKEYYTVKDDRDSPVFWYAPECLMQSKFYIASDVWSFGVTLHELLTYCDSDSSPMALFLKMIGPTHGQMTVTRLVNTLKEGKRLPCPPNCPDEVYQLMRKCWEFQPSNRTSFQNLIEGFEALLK

Compared with `O=C(NCCN1CCOCC1)c1ccc(-c2nnc(Nc3cc(C(F)(F)F)cc(C(F)(F)F)c3)c3ccccc23)cc1` [Compound 49, 4-(4-{[3,5-bis(trifluoromethyl)phenyl]amino}phthalazin-1-yl)-N-(2-morpholin-4-ylethyl)benzamide], `CNC(=O)c1ccc(-c2nnc(Nc3cc(C(F)(F)F)cc(C(F)(F)F)c3)c3ccccc23)cc1` [Compound 55, 4-(4-{[3,5-bis(trifluoromethyl)phenyl]amino}phthalazin-1-yl)-N-methylbenzamide] is lower in IC50: 500 to 1000 nM for the first, 150 to 500 nM for the second.

First: CC(=O)c1cccc(-c2nnc(Nc3cc(C(F)(F)F)cc(C(F)(F)F)c3)c3ccccc23)c1 [Compound 50, 1-[3-(4-{[3,5-bis(trifluoromethyl)phenyl]amino}phthalazin-1-yl)phenyl]ethanone]
Second: COC(=O)c1ccc(-c2nnc(Nc3cc(C(F)(F)F)cc(C(F)(F)F)c3)c3ccccc23)cc1 [Compound 66, methyl 4-(4-{[3,5-bis(trifluoromethyl)phenyl]amino}phthalazin-1-yl)benzoate]
The IC50 of the first is higher: 2000 to 30000 nM for the first, 150 to 500 nM for the second.

First: COC(=O)c1ccc(-c2nnc(Nc3cccc(Br)c3)c3ccccc23)cc1 [Compound 51, methyl 4-{4-[(3-bromophenyl)amino]phthalazin-1-yl}benzoate]
Second: COC(=O)c1ccc(-c2nnc(Nc3cccc(C#N)c3)c3ccccc23)cc1 [Compound 54, methyl 4-{4-[(3-cyanophenyl)amino]phthalazin-1-yl}benzoate]
The IC50 of the first is lower: 150 to 500 nM for the first, 2000 to 30000 nM for the second. The first is the more potent here.

First: FC(F)(F)c1cc(Nc2nnc(-c3ccc(-c4cc[nH]n4)cc3)c3ccccc23)cc(C(F)(F)F)c1 [Compound 52, N-[3,5-bis(trifluoromethyl)phenyl]-4-[4-(1H-pyrazol-3-yl)phenyl]phthalazin-1-amine]
Second: Cc1cc(-c2ccc(-c3nnc(Nc4cc(C(F)(F)F)cc(C(F)(F)F)c4)c4ccccc34)cc2)n[nH]1 [Compound 61, N-[3,5-bis(trifluoromethyl)phenyl]-4-[4-(5-methyl-1H-pyrazol-3-yl)phenyl]phthalazin-1-amine]
The IC50 of the first is lower: 150 to 500 nM for the first, 500 to 1000 nM for the second.

First: COC(=O)c1ccc(-c2nnc(Nc3ccc(F)c(C(F)(F)F)c3)c3ccccc23)cc1 [Compound 53, methyl 4-(4-{[4-fluoro-3-(trifluoromethyl)phenyl]amino}phthalazin-1-yl)benzoate]
Second: COC(=O)c1ccc(-c2nnc(Nc3cccc(C(F)(F)F)c3)c3ccccc23)cc1 [Compound 58, methyl 4-(4-{[3-(trifluoromethyl)phenyl]amino}phthalazin-1-yl)benzoate]
The IC50 of the first is higher: 500 to 1000 nM for the first, ≤ 150 nM for the second.

Compared with `Cc1n[nH]c2cc(-c3nnc(Nc4cc(C(F)(F)F)cc(C(F)(F)F)c4)c4ccccc34)ccc12` [Compound 56, N-[3,5-bis(trifluoromethyl)phenyl]-4-(3-methyl-1H-indazol-6-yl)phthalazin-1-amine], `COC(=O)c1ccc(-c2nnc(Nc3cc(C(F)(F)F)cc(C(F)(F)F)c3)c3ccccc23)c(C)c1` [Compound 64, methyl 4-(4-{[3,5-bis(trifluoromethyl)phenyl]amino}phthalazin-1-yl)-3-methylbenzoate] is higher in IC50: 150 to 500 nM for the first, 500 to 1000 nM for the second.

Compared with `COC(=O)c1ccc(-c2nnc(Nc3cccc(C(C)C)c3)c3cnccc23)cc1` [Compound 57, methyl 4-(4-{[3-(1-methylethyl)phenyl]amino}pyrido[3,4-d]pyridazin-1-yl)benzoate], `COC(=O)c1ccc(-c2nnc(Nc3cccc(C(C)C)c3)c3ccccc23)cc1` [Compound 62, methyl 4-(4-{[3-(1-methylethyl)phenyl]amino}phthalazin-1-yl)benzoate] is lower in IC50: 500 to 1000 nM for the first, 150 to 500 nM for the second.

`COC(=O)c1ccc(-c2nnc(Nc3cc(C)cc(Br)c3)c3ccccc23)cc1` [Compound 59, methyl 4-{4-[(3-bromo-5-methylphenyl)amino]phthalazin-1-yl}benzoate] and `COC(=O)c1ccc(-c2nnc(Nc3cc(C)cc(C(F)(F)F)c3)c3ccccc23)cc1` [Compound 65, methyl 4-(4-{[3-methyl-5-(trifluoromethyl)phenyl]amino}phthalazin-1-yl)benzoate] cannot be ordered by IC50: 150 to 500 nM for the first, ≤ 150 nM for the second.

First: COC(=O)c1ccc(-c2nnc(Nc3cc(CCN(C)C)cc(C(F)(F)F)c3)c3ccccc23)cc1 [Compound 60, methyl 4-[4-({3-[2-(dimethylamino)ethyl]-5-(trifluoromethyl)phenyl}amino)phthalazin-1-yl]benzoate]
Second: COC(=O)c1ccc(-c2nnc(Nc3cccc(N(C)C)c3)c3ccccc23)cc1 [Compound 63, methyl 4-(4-{[3-(dimethylamino)phenyl]amino}phthalazin-1-yl)benzoate]
The IC50 of the first is lower: 500 to 1000 nM for the first, 2000 to 30000 nM for the second.

— US20130165440A1, “JAK1 Inhibitors” (EXELIXIS, INC., priority 2010, published 2013)
